PubChem BioAssay AID2060485 (Molecular Pharmacology Branch, DTP, NCI, 2025)

Test system: A375 multi-cell spheroids with HUVEC/MSC, viability
Experiment: Anticancer human tumor A375 cell line growth inhibition [GQUAD];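 note: spheroids exposed to compounds for seven days before readout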
Details: for IC50: curve of first compound; for viability, T/C: stronger effect = lower value
How it was run: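 Tumor cells were grown as complex spheroids with HUVEC endothelial cells and mesenchymal stem cells as stroma. G-quadruplex stabilizers were combined with targeted agents over half-log dilutions from near the clinical Cmax, or from 10 microM.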

[1] = second compound 0.0316 µM, first compound 0.0316 µM
[2] = second compound 0.0316 µM, first compound 0.1 µM
[3] = second compound 0.0316 µM, first compound 0.316 µM
[4] = second compound 0.0316 µM, first compound 1 µM
[5] = second compound 0.0316 µM, first compound 3.16 µM
[6] = second compound 0.0316 µM, first compound 10 µM
[7] = second compound 0.1 µM, first compound 0.0316 µM
[8] = second compound 0.1 µM, first compound 0.1 µM
[9] = second compound 0.1 µM, first compound 0.316 µM
[10] = second compound 0.1 µM, first compound 1 µM
[11] = second compound 0.1 µM, first compound 3.16 µM
[12] = second compound 0.1 µM, first compound 10 µM
[13] = second compound 0.316 µM, first compound 0.0316 µM
[14] = second compound 0.316 µM, first compound 0.1 µM
[15] = second compound 0.316 µM, first compound 0.316 µM
[16] = second compound 0.316 µM, first compound 1 µM
[17] = second compound 0.316 µM, first compound 3.16 µM
[18] = second compound 0.316 µM, first compound 10 µM
[19] = second compound 1 µM, first compound 0.0316 µM
[20] = second compound 1 µM, first compound 0.1 µM
[21] = second compound 1 µM, first compound 0.316 µM
[22] = second compound 1 µM, first compound 1 µM
[23] = second compound 1 µM, first compound 3.16 µM
[24] = second compound 1 µM, first compound 10 µM
[25] = second compound 3.16 µM, first compound 0.0316 µM
[26] = second compound 3.16 µM, first compound 0.1 µM
[27] = second compound 3.16 µM, first compound 0.316 µM
[28] = second compound 3.16 µM, first compound 1 µM
[29] = second compound 3.16 µM, first compound 3.16 µM
[30] = second compound 3.16 µM, first compound 10 µM
[31] = second compound 10 µM, first compound 0.0316 µM
[32] = second compound 10 µM, first compound 0.1 µM
[33] = second compound 10 µM, first compound 0.316 µM
[34] = second compound 10 µM, first compound 1 µM
[35] = second compound 10 µM, first compound 3.16 µM
[36] = second compound 10 µM, first compound 10 µM

For `CC(C)n1c(=O)n(C)c2cnc3cc(F)c(-c4ccc(OCCCN5CCCCC5)nc4)cc3c21` + Cc1[nH]c2ccc(F)cc2c1-c1nc2c3cccnc3c3ncccc3c2[nH]1, the IC50 (second compound 0.0316 µM) was greater than 10000 nM, the IC50 (second compound 0.1 µM) was greater than 10000 nM and the IC50 (second compound 0.316 µM) was greater than 10000 nM. For the same compound, the IC50 (second compound 1 µM) was greater than 10000 nM, the IC50 (second compound 3.16 µM) was 5040 nM and the IC50 (second compound 10 µM) was 9550 nM. The viability, T/C [1] was 92.3%, the viability, T/C [2] was 93.3% and the viability, T/C [3] was 91.1%. It also gave a viability, T/C [4] of 96.3%, a viability, T/C [5] of 109% and a viability, T/C [6] of 91.1%. For the same compound, the viability, T/C [7] was 98.2%, the viability, T/C [8] was 89.7% and the viability, T/C [9] was 97.2%. It also gave a viability, T/C [10] of 95.9%, a viability, T/C [11] of 113% and a viability, T/C [12] of 96.3%. The viability, T/C [13] was 92.5%, the viability, T/C [14] was 91.8% and the viability, T/C [15] was 112%. It also gave a viability, T/C [16] of 96.7%, a viability, T/C [17] of 106% and a viability, T/C [18] of 90%. It also gave a viability, T/C [19] of 89.9%, a viability, T/C [20] of 98.1% and a viability, T/C [21] of 97.8%. It also gave a viability, T/C [22] of 96%, a viability, T/C [23] of 116% and a viability, T/C [24] of 93.7%. For the same compound, the viability, T/C [25] was 83.5%, the viability, T/C [26] was 80.2% and the viability, T/C [27] was 92.7%. For the same compound, the viability, T/C [28] was 73%, the viability, T/C [29] was 65.2% and the viability, T/C [30] was 29.3%. It also gave a viability, T/C [31] of 106%, a viability, T/C [32] of 101% and a viability, T/C [33] of 101%. For the same compound, the viability, T/C [34] was 88.4%, the viability, T/C [35] was 81.2% and the viability, T/C [36] was 47.7%.
Compound `COc1cc(C2c3cc4c(cc3C(OC3OC5COC(C)OC5C(O)C3O)C3COC(=O)C23)OCO4)cc(OC)c1O` (stereo not drawn) + CN(C)c1ccc(Nc2c3ccc(NC(=O)CCN4CCCC4)cc3nc3cc(NC(=O)CCN4CCCC4)ccc23)cc1 has an IC50 (second compound 0.0316 µM) of 1020 nM, an IC50 (second compound 0.1 µM) of 966 nM and an IC50 (second compound 0.316 µM) of 1200 nM. The IC50 (second compound 1 µM) was 1410 nM, the IC50 (second compound 3.16 µM) was 1580 nM and the IC50 (second compound 10 µM) was 1460 nM. It also gave a viability, T/C [1] of 99%, a viability, T/C [2] of 105% and a viability, T/C [3] of 75.3%. The viability, T/C [4] was 52.5%, the viability, T/C [5] was 27.5% and the viability, T/C [6] was 19%. It also gave a viability, T/C [7] of 109%, a viability, T/C [8] of 103% and a viability, T/C [9] of 71.6%. It also gave a viability, T/C [10] of 50.2%, a viability, T/C [11] of 31.1% and a viability, T/C [12] of 18%. The viability, T/C [13] was 107%, the viability, T/C [14] was 107% and the viability, T/C [15] was 74.2%. For the same compound, the viability, T/C [16] was 55.1%, the viability, T/C [17] was 33% and the viability, T/C [18] was 18.2%. For the same compound, the viability, T/C [19] was 117%, the viability, T/C [20] was 105% and the viability, T/C [21] was 86.3%. It also gave a viability, T/C [22] of 58.6%, a viability, T/C [23] of 30.9% and a viability, T/C [24] of 18.1%. For the same compound, the viability, T/C [25] was 103%, the viability, T/C [26] was 103% and the viability, T/C [27] was 84.5%. It also gave a viability, T/C [28] of 60.1%, a viability, T/C [29] of 35.2% and a viability, T/C [30] of 18.8%. For the same compound, the viability, T/C [31] was 105%, the viability, T/C [32] was 99.9% and the viability, T/C [33] was 80.6%. For the same compound, the viability, T/C [34] was 56.9%, the viability, T/C [35] was 35.9% and the viability, T/C [36] was 20.1%.
For `COc1cccc2c1C(=O)c1c(O)c3c(c(O)c1C2=O)CC(O)(C(=O)CO)CC3OC1CC(N)C(O)C(C)O1` (stereo not drawn) + CN(C)c1ccc(Nc2c3ccc(NC(=O)CCN4CCCC4)cc3nc3cc(NC(=O)CCN4CCCC4)ccc23)cc1, the IC50 (second compound 0.0316 µM) was 196 nM, the IC50 (second compound 0.1 µM) was 214 nM and the IC50 (second compound 0.316 µM) was 217 nM. It also gave an IC50 (second compound 1 µM) of 222 nM, an IC50 (second compound 3.16 µM) of 229 nM and an IC50 (second compound 10 µM) of 233 nM. It also gave a viability, T/C [1] of 107%, a viability, T/C [2] of 70.2% and a viability, T/C [3] of 34%. For the same compound, the viability, T/C [4] was 18.7%, the viability, T/C [5] was 2.21% and the viability, T/C [6] was 0.12%. For the same compound, the viability, T/C [7] was 105%, the viability, T/C [8] was 75.2% and the viability, T/C [9] was 34.6%. The viability, T/C [10] was 18.5%, the viability, T/C [11] was 2.59% and the viability, T/C [12] was 0.11%. It also gave a viability, T/C [13] of 110%, a viability, T/C [14] of 79.7% and a viability, T/C [15] of 32.2%. For the same compound, the viability, T/C [16] was 18.3%, the viability, T/C [17] was 2.01% and the viability, T/C [18] was 0.1%. For the same compound, the viability, T/C [19] was 107%, the viability, T/C [20] was 80.7% and the viability, T/C [21] was 33.2%. For the same compound, the viability, T/C [22] was 17.7%, the viability, T/C [23] was 2.55% and the viability, T/C [24] was 0.13%. The viability, T/C [25] was 112%, the viability, T/C [26] was 82% and the viability, T/C [27] was 34.2%. The viability, T/C [28] was 18.6%, the viability, T/C [29] was 2.88% and the viability, T/C [30] was 0.15%. For the same compound, the viability, T/C [31] was 103%, the viability, T/C [32] was 77.5% and the viability, T/C [33] was 38.3%. It also gave a viability, T/C [34] of 17.9%, a viability, T/C [35] of 4.36% and a viability, T/C [36] of 0.25%.
`C=CCn1c(=O)c2cnc(Nc3ccc(N4CCN(C)CC4)cc3)nc2n1-c1cccc(C(C)(C)O)n1` + Cc1[nH]c2ccc(F)cc2c1-c1nc2c3cccnc3c3ncccc3c2[nH]1 was tested, and the IC50 (second compound 0.0316 µM) was 1040 nM, the IC50 (second compound 0.1 µM) was 1100 nM and the IC50 (second compound 0.316 µM) was 968 nM. For the same compound, the IC50 (second compound 1 µM) was 703 nM, the IC50 (second compound 3.16 µM) was 72.2 nM and the IC50 (second compound 10 µM) was 149 nM. For the same compound, the viability, T/C [1] was 108%, the viability, T/C [2] was 94.2% and the viability, T/C [3] was 93.6%. It also gave a viability, T/C [4] of 51.6%, a viability, T/C [5] of 11.5% and a viability, T/C [6] of 4.8%. The viability, T/C [7] was 106%, the viability, T/C [8] was 94.2% and the viability, T/C [9] was 94.2%. The viability, T/C [10] was 52.7%, the viability, T/C [11] was 15.4% and the viability, T/C [12] was 6.47%. For the same compound, the viability, T/C [13] was 104%, the viability, T/C [14] was 103% and the viability, T/C [15] was 93.3%. For the same compound, the viability, T/C [16] was 48.8%, the viability, T/C [17] was 12.4% and the viability, T/C [18] was 6.56%. The viability, T/C [19] was 101%, the viability, T/C [20] was 104% and the viability, T/C [21] was 80%. For the same compound, the viability, T/C [22] was 36.8%, the viability, T/C [23] was 12.3% and the viability, T/C [24] was 8.03%. For the same compound, the viability, T/C [25] was 59.1%, the viability, T/C [26] was 45.1% and the viability, T/C [27] was 33.3%. It also gave a viability, T/C [28] of 19.5%, a viability, T/C [29] of 7.29% and a viability, T/C [30] of 5.68%. It also gave a viability, T/C [31] of 77.5%, a viability, T/C [32] of 63.9% and a viability, T/C [33] of 23.9%. The viability, T/C [34] was 20.2%, the viability, T/C [35] was 8.19% and the viability, T/C [36] was 5.93%.
